{"source": "BindingDB's records for patent US11708326", "about": "(Chemocentryx, 2023)"}
{"molecular_target": "Programmed cell death 1 ligand 1 (Homo sapiens, UniProt Q9NZQ7)", "sequence (Q9NZQ7 whole entry)": "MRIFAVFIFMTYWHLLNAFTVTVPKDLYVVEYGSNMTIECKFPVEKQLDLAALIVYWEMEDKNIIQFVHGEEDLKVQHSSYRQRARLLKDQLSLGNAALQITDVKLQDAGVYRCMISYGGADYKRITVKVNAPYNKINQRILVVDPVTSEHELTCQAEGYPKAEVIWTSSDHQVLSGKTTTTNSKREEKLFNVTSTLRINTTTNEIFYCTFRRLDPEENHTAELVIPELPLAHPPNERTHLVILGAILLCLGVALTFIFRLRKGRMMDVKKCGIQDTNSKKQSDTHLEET", "assay": "Enzyme-Linked Immunosorbent Assay ELISA", "method": "96 Well plates were coated with 1 μg/mL of human PD-L1 (obtained from R&D) in PBS overnight at 4° C. The wells were then blocked with 2% BSA in PBS (W/V) with 0.05% TWEEN-20 for 1 hour at 37° C. The plates were washed 3 times with PBS/0.05% TWEEN-20 and the compounds were serial diluted (1:5) in dilution medium and added to the ELISA plates. Human PD-1 and biotin 0.3 μg/mL (ACRO Biosystems) were added and incubated for 1 hour at 37° C. then washed 3 times with PBS/0.05% TWEEN-20. A second block was performed with 2% BSA in PBS (W/V)/0.05% TWEEN-20 for 10 min at 37° C. and was washed 3 times with PBS/0.05% TWEEN-20. Streptavidin-HRP was added for 1 hour at 37° C. then washed 3 times with PBS/0.05% TWEEN-20. TMB substrate was added and reacted for 20 min at 37° C. A stop solution (2 N aqueous H2SO4) was added. The absorbance was read at 450 nm using a micro-plate spectrophotometer."}
{"smiles": "N#Cc1cncc(COc2cc(O[C@H]3CCc4c(-c5cccc(OCCCN6CC7(CC(O)C7)C6)c5Cl)cccc43)c(Cl)cc2CNC[C@H]2CCC(=O)N2)c1", "note": "[US11708326, Compound TABLE 1.165]", "IC50": "< 5 nM"}
{"smiles": "Cc1c(OCCCN2CCC2(C)C)cccc1-c1cccc2c1CC[C@@H]2Oc1cc(OCc2cc(C#N)cc(C#N)c2)c(CN[C@H]2CCC(=O)NC2)cc1Cl", "note": "[US11708326, Compound TABLE 1.323]", "IC50": "< 5 nM"}
{"smiles": "Cc1c(OCCCN2CC[C@@H](O)[C@H](F)C2)cccc1-c1cccc2c1CC[C@@H]2Oc1cc(OCc2cncc(C#N)c2)c(CN[C@H](C(=O)O)[C@@H](C)O)cc1Cl", "note": "[US11708326, Compound TABLE 1.31]", "IC50": "in the range around 252 nM"}
{"smiles": "Cc1c(OCCCN2CCCC2C(C)C)cccc1-c1cccc2c1CC[C@@H]2Oc1cc(OCc2cc(C#N)cc(C#N)c2)c(CN[C@H]2CCC(=O)NC2)cc1Cl", "note": "(stereo not given in full) [US11708326, Compound TABLE 1.305]", "IC50": "in the range around 252 nM"}
{"smiles": "Cc1c(OCCCN2[C@H](C)CC[C@H]2C)cccc1-c1cccc2c1CC[C@@H]2Oc1cc(OCc2cc(C#N)cc(C#N)c2)c(CN[C@H]2CCC(=O)NC2)cc1Cl", "note": "[US11708326, Compound TABLE 1.334]", "IC50": "< 5 nM"}
{"smiles": "CCOc1cc(O[C@H]2CCc3c(-c4cccc(OCCCN5CCC5(C)C)c4C)cccc32)c(Cl)cc1CN(C)CC(=O)O", "note": "[US11708326, Compound TABLE 1.378]", "IC50": "in the range around 252 nM"}
{"smiles": "CC(CO)(NCc1cc(Cl)c(O[C@H]2CCc3c(-c4cccc(OCCCN5CCCCC5)c4Cl)cccc32)cc1OCc1cncc(C#N)c1)C(=O)O", "note": "(stereo not given in full) [US11708326, Compound TABLE 1.130]", "IC50": "< 5 nM"}
{"smiles": "N#Cc1cncc(COc2cc(O[C@H]3CCc4c(-c5cccc(OCCCN6CC(O)C6)c5Cl)cccc43)c(Cl)cc2CN2CCCC3(C2)NC(=O)NC3=O)c1", "note": "(stereo not given in full) [US11708326, Compound TABLE 1.137]", "IC50": "< 5 nM"}
{"smiles": "Cc1c(OCCCN2[C@@H](C)CC[C@@H]2C)cccc1-c1cccc2c1CC[C@@H]2Oc1cc(OCc2cc(C#N)cc(C#N)c2)c(CN[C@H]2CCC(=O)NC2)cc1Cl", "note": "[US11708326, Compound TABLE 1.335]", "IC50": "< 5 nM"}
{"smiles": "Cc1c(OCCCN2[C@H](C)CCC[C@@H]2C)cccc1-c1cccc2c1CC[C@@H]2Oc1cc(OCc2cc(C#N)cc(C#N)c2)c(CN[C@H]2CCC(=O)NC2)cc1Cl", "note": "[US11708326, Compound TABLE 1.298]", "IC50": "in the range around 252 nM"}
{"smiles": "Cc1c(OCCCN2CCC(C)CC2)cccc1-c1cccc2c1CC[C@@H]2Oc1cc(OCc2cc(C#N)cc(C#N)c2)c(CN[C@H]2CCC(=O)NC2)cc1Cl", "note": "[US11708326, Compound TABLE 1.296]", "IC50": "in the range around 252 nM"}
{"smiles": "CCOc1cc(O[C@H]2CCc3c(-c4cccc(OCCCN5CCC5(C)C)c4C)cccc32)c(Cl)cc1CNCCC(=O)OC(C)C", "note": "[US11708326, Compound TABLE 1.393]", "IC50": "in the range around 252 nM"}
{"smiles": "CCOc1cc(NC2CCc3c(-c4cccc(OCCCN5CCC(F)CC5)c4C)cccc32)c(Cl)cc1CN[C@@H](CO)C(=O)O", "note": "(stereo not given in full) [US11708326, Compound TABLE 1.117]", "IC50": "in the range around 252 nM"}
{"smiles": "Cc1c(OCCCN2CC[C@H](O)[C@H](F)C2)cccc1-c1cccc2c1CC[C@@H]2Oc1cc(OCc2cncc(C#N)c2)c(CN[C@H](C(=O)O)[C@@H](C)O)cc1Cl", "note": "[US11708326, Compound TABLE 1.34]", "IC50": "< 5 nM"}
{"smiles": "Cc1c(OCCCN2C(C)CCC2C)cccc1-c1cccc2c1CC[C@@H]2Oc1cc(OCc2cc(C#N)cc(C#N)c2)c(CN[C@H]2CCC(=O)NC2)cc1Cl", "note": "(stereo not given in full) [US11708326, Compound TABLE 1.304]", "IC50": "< 5 nM"}
{"smiles": "Cc1c(OCCCN2[C@H](C)CC[C@@H]2C)cccc1-c1cccc2c1CC[C@@H]2Oc1cc(OCc2cc(C#N)cc(C#N)c2)c(CN[C@H]2CCC(=O)NC2)cc1Cl", "note": "[US11708326, Compound TABLE 1.333]", "IC50": "< 5 nM"}
{"smiles": "Cc1c(OCCCN2CCC(F)(F)CC2)cccc1-c1cccc2c1CC[C@@H]2Oc1cc(OCc2cncc(C#N)c2)c(CN[C@H](C(=O)O)[C@@H](C)O)cc1Cl", "note": "[US11708326, Compound TABLE 1.18]", "IC50": "in the range around 252 nM"}
{"smiles": "Cc1c(OCCCN2CCCC[C@@H]2C)cccc1-c1cccc2c1CC[C@@H]2Oc1cc(OCc2cc(C#N)cc(C#N)c2)c(CN[C@H]2CCC(=O)NC2)cc1Cl", "note": "[US11708326, Compound TABLE 1.315]", "IC50": "< 5 nM"}
{"smiles": "N#Cc1cncc(COc2cc(O[C@H]3CCc4c(-c5cccc(OCCCN6CC7(CC(O)C7)C6)c5Cl)cccc43)c(Cl)cc2CNC[C@@H]2CCC(=O)N2)c1", "note": "[US11708326, Compound TABLE 1.164]", "IC50": "< 5 nM"}
{"smiles": "N#Cc1cncc(COc2cc(O[C@H]3CCc4c(-c5cccc(OCCCN6CC(F)C6)c5Cl)cccc43)c(Cl)cc2CN[C@@H]2CCCC[C@@H]2O)c1", "note": "[US11708326, Compound TABLE 1.92]", "IC50": "< 5 nM"}
